34 compounds from US12421249B2, “Inhibitors of APOL1 and methods of using same” (Vertex Pharmaceuticals Incorporated, priority 2020, dated 2025) can be followed below.

One assay has as its target T1, APOL1 G1 (Homo sapiens, UniProt O14791, I384M/S342G).
T1 sequence (O14791 28-398 S342G/I384M): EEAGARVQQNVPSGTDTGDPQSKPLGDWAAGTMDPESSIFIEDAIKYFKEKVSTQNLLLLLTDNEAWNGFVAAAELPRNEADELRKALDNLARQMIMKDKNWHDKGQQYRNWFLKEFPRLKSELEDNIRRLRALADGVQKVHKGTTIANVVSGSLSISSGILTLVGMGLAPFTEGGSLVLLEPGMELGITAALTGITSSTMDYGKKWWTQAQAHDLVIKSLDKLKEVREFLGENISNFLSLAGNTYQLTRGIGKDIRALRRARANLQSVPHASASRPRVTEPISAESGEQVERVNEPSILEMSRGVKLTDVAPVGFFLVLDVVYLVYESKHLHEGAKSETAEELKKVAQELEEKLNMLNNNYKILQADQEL
Briefly: Trypanosoma brucei brucei Lysis Assay Using APOL1 Recombinant Protein (AlamarBlue viability readout). In kind it is cell-based. The settings on record: Trypanosome Assay; for pIC50: IP50 = IC50 for cell proliferation, read-out: Trypanosome Assay IP50; for Emax: read-out: Trypanosome Assay Max Activity (%). In a few lines: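 Percent viability comes from AlamarBlue (resazurin→resorufin) fluorescence interpolated on a standard curve of known parasite numbers, with no-APOL1 wells as 100%. Parasites (Lister 427 bloodstream form, 120,000/well, serum-free assay medium) meet 0.05 μg/mL APOL1 (~EC90). Compounds span a 10-point series, 0.1% DMSO final.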

Another assay addresses T2, APOL1 (Homo sapiens, UniProt O14791).
T2 sequence (O14791 1-398 S342G/I384M): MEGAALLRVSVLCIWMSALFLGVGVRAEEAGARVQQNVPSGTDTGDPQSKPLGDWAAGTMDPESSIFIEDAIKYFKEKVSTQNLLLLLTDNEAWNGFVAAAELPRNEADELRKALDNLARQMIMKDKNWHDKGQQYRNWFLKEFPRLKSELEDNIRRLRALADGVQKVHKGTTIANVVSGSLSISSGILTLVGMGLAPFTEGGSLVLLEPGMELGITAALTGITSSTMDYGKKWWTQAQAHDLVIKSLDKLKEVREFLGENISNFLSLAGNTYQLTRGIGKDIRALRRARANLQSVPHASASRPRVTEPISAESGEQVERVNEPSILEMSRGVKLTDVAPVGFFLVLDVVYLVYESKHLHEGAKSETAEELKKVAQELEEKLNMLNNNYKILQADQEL
Briefly: Multi-Tox Assay (MultiTox-Fluor Multiplex Cytotoxicity Assay in tet-inducible APOL1 T-REx-HEK293 cells; Table 46 does not say which APOL1 variant G0/G1/G2). In kind it is cell-based. To be noted: APOL1 variant not given; for pIC50: IP50 = IC50 for cell proliferation.

pIC50: −log10 of the molar value.

Take `C[C@H]1C[C@@]2(C[C@@H](c3cocn3)N1)OCCc1cc(Cl)sc12` (racemic) [Compound 79]: the pIC50 on APOL1 G1 and against APOL1 was above 7.30 in each case. Besides, the Emax on APOL1 G1 turned out to be 97.5%.

`C[C@H]1C[C@@]2(C[C@@H](c3ccc(=O)n(C)c3)N1)OCCc1cc(Cl)sc12` (racemic) [Compound 80]: the pIC50 at APOL1 G1 and at APOL1 was above 7.30 in each case.

Regarding `C[C@H]1C[C@@]2(C[C@@H](c3ccccc3)N1)OCCc1cc(Cl)sc12` (racemic) [Compound 81], the pIC50 on APOL1 G1 and at APOL1 was above 7.30 in each case.

As for `Cc1ncc([C@@H]2C[C@]3(C[C@H](C)N2)OCCc2cc(Cl)sc23)cn1` (racemic) [Compound 82], the pIC50 at APOL1 G1 and against APOL1 was above 7.30 in each case. The Emax at APOL1 G1 is 106%.

As for `C[C@H]1C[C@@]2(C[C@@H](c3ccccn3)N1)OCCc1cc(Cl)sc12` (racemic) [Compound 83], at APOL1 G1, the pIC50 was above 7.30 and the Emax stood at 111%. The same compound had a pIC50 at APOL1 above 7.30.

On to `COc1ccc2[nH]c([C@@H]3C[C@]4(C[C@H](C)N3)OCCc3cc(Cl)sc34)cc2n1` (racemic) [Compound 84], for which, on APOL1 G1, the pIC50 is above 7.30 and the Emax was 112%. This compound had a pIC50 on APOL1 above 7.30.

For `C[C@H]1C[C@@]2(C[C@@H](c3c[nH]cn3)N1)OCCc1cc(Cl)sc12` (racemic) [Compound 85], the pIC50 on APOL1 G1 and against APOL1 was above 7.30 in each case.

Consider `C[C@H]1C[C@@]2(C[C@@H](c3cc(C4CC4)no3)N1)OCCc1cc(Cl)sc12` (racemic) [Compound 87], for which the pIC50 on APOL1 G1 and against APOL1 was above 7.30 in each case.

For `C[C@H]1C[C@@]2(C[C@@H](c3cc(-c4ccccn4)n[nH]3)N1)OCCc1cc(Cl)sc12` (racemic) [Compound 88], at APOL1 G1, the pIC50 is above 7.30 and the Emax amounted to 98%. At APOL1, the IC90 – broadly, the concentration at which the effect reaches the 90% level – was below 50 nM; the “Multi-Tox Assay Max Activity (%)” value turned out to be 99.3%; the pIC50 is above 7.30.

As for `C[C@H]1C[C@@]2(C[C@@H](c3ccc(N(C)C)nc3)N1)OCCc1cc(Cl)sc12` (racemic) [Compound 89], the pIC50 at APOL1 G1 and against APOL1 was above 7.30 each time. The Emax on APOL1 G1 was 101%.

With `COCCn1cc([C@@H]2C[C@]3(C[C@H](C)N2)OCCc2cc(Cl)sc23)cn1` (racemic) [Compound 90], at APOL1 G1, the pIC50 was above 7.30 and the Emax stood at 104%. On APOL1, this compound had a pIC50 above 7.30.

As for `C[C@H]1C[C@@]2(C[C@@H](c3cccnn3)N1)OCCc1cc(Cl)sc12` (racemic) [Compound 92], the pIC50 on APOL1 G1 and against APOL1 was above 7.30 in each case. At APOL1 G1, the Emax is 103%.

Turning to `C[C@H]1C[C@@]2(C[C@@H](c3ccnnc3)N1)OCCc1cc(Cl)sc12` (racemic) [Compound 93], at APOL1 G1, the pIC50 is 6.30 to 7.30 and the Emax is 112%. This compound also had a pIC50 at APOL1 above 7.30.

Turning to `Cc1ncc([C@@H]2C[C@]3(C[C@H](C)N2)OCCc2cc(Cl)sc23)o1` (racemic) [Compound 94], at APOL1 G1, the pIC50 was above 7.30 and the Emax stood at 104%. The same compound gave a pIC50 on APOL1 above 7.30.

As to `C[C@H]1C[C@@]2(C[C@@H](c3cnc(NC(C)(C)CO)nc3)N1)OCCc1cc(Cl)sc12` (racemic) [Compound 95], the figures for the pIC50 on APOL1 G1 and against APOL1 were 6.30 to 7.30 and above 7.30, respectively. For the same compound, the Emax on APOL1 G1 amounted to 106%.

`C[C@H]1C[C@@]2(C[C@@H](c3ccon3)N1)OCCc1cc(Cl)sc12` (racemic) [Compound 96]: at APOL1 G1, the pIC50 is above 7.30 and the Emax worked out at 104%. At APOL1, this compound had a pIC50 above 7.30.

Take `Cc1cc([C@@H]2C[C@]3(C[C@H](C)N2)OCCc2cc(Cl)sc23)nn1C` (racemic) [Compound 98]: at APOL1 G1, the pIC50 was above 7.30 and the Emax was 110%. Besides, on APOL1, the “Multi-Tox Assay Max Activity (%)” value came out at 99.0% and the pIC50 is above 7.30.

For `COc1ccc([C@@H]2C[C@]3(C[C@H](C)N2)OCCc2cc(Cl)sc23)cc1O` (racemic) [Compound 99], on APOL1 G1, the pIC50 was above 7.30 and the Emax came to 102%. Besides, at APOL1, the “Multi-Tox Assay Max Activity (%)” value came out at 99.0% and the pIC50 is above 7.30.

As for `C[C@H]1C[C@@]2(C[C@@H](c3cnn(C4CCOCC4)c3)N1)OCCc1cc(Cl)sc12` (racemic) [Compound 100], the pIC50 on APOL1 G1 and on APOL1 was above 7.30 in each case. The Emax at APOL1 G1 is 99%.

On to `C[C@H]1C[C@@]2(C[C@@H](c3cnccn3)N1)OCCc1cc(Cl)sc12` (racemic) [Compound 101], for which, at APOL1 G1, the pIC50 is 6.30 to 7.30 and the Emax is 114%. Also, at APOL1, the “Multi-Tox Assay Max Activity (%)” value was 100.0% and the pIC50 is above 7.30.

With `CCOc1cc([C@@H]2C[C@]3(C[C@H](C)N2)OCCc2cc(Cl)sc23)ccc1O` (racemic) [Compound 102], on APOL1 G1, the pIC50 is above 7.30 and the Emax is 112%. Moreover, at APOL1, the “Multi-Tox Assay Max Activity (%)” value amounted to 99.8% and the pIC50 was above 7.30.

On to `C[C@H]1C[C@@]2(C[C@@H](c3cnn(CC(C)(CO)CO)c3)N1)OCCc1cc(Cl)sc12` (racemic) [Compound 103], for which the pIC50 at APOL1 G1 was 6.30 to 7.30; against APOL1, above 7.30. Further, the Emax at APOL1 G1 stood at 118%.

For the compound `Cc1nc([C@@H]2C[C@]3(C[C@H](C)N2)OCCc2cc(Cl)sc23)co1` (racemic) [Compound 104], at APOL1 G1, the pIC50 is 6.30 to 7.30 and the Emax came to 100%. In addition, at APOL1, the “Multi-Tox Assay Max Activity (%)” value was found to be 99.3% and the pIC50 was above 7.30.

For the compound `COc1ccccc1-c1ncc([C@@H]2C[C@]3(C[C@H](C)N2)OCCc2cc(Cl)sc23)cn1` (racemic) [Compound 105], on APOL1 G1, the pIC50 was above 7.30 and the Emax was 72%. Moreover, at APOL1, the “Multi-Tox Assay Max Activity (%)” value was found to be 99.3% and the pIC50 is above 7.30.

`COCc1cc([C@@H]2C[C@]3(C[C@H](C)N2)OCCc2cc(Cl)sc23)no1` (racemic) [Compound 106]: at APOL1 G1, the pIC50 is above 7.30 and the Emax was found to be 107%. Besides, at APOL1, the pIC50 was above 7.30.

As for `CCOc1ccc([C@@H]2C[C@]3(C[C@H](C)N2)OCCc2cc(Cl)sc23)cc1O` (racemic) [Compound 107], on APOL1 G1, the pIC50 was above 7.30 and the Emax is 92.5%. Also, on APOL1, the “Multi-Tox Assay Max Activity (%)” value amounted to 99.7% and the pIC50 is above 7.30.

Regarding `Cc1cc([C@@H]2C[C@]3(C[C@H](C)N2)OCCc2cc(Cl)sc23)ccc1O` (racemic) [Compound 108], at APOL1 G1, the pIC50 is above 7.30 and the Emax is 94.5%. Also, on APOL1, the “Multi-Tox Assay Max Activity (%)” value was 99.0% and the pIC50 is above 7.30.

For the compound `C[C@H]1C[C@@]2(C[C@@H](c3cccc(C(N)=O)c3)N1)OCCc1cc(Cl)sc12` (racemic) [Compound 109], at APOL1 G1, the pIC50 is 6.30 to 7.30 and the Emax was determined as 100%. In addition, at APOL1, the “Multi-Tox Assay Max Activity (%)” value stood at 100.0% and the pIC50 was above 7.30.

On to `COc1nccc([C@@H]2C[C@]3(C[C@H](C)N2)OCCc2cc(Cl)sc23)n1` (racemic) [Compound 110], for which, on APOL1 G1, the pIC50 is 6.30 to 7.30 and the Emax was 115%. The pIC50 against APOL1 was above 7.30.

On to `CCC(O)Cn1cc([C@@H]2C[C@]3(C[C@H](C)N2)OCCc2cc(Cl)sc23)nn1` (mixture of isomers) [Compound 111], for which, at APOL1 G1, the pIC50 was 6.30 to 7.30 and the Emax worked out at 98.5%. At APOL1, the “Multi-Tox Assay Max Activity (%)” value worked out at 99.3% and the pIC50 is above 7.30.

On to `C[C@H]1C[C@@]2(C[C@@H](c3ccnc(O)c3)N1)OCCc1cc(Cl)sc12` (racemic) [Compound 112], for which, at APOL1 G1, the pIC50 was 6.30 to 7.30 and the Emax came out at 112%. Besides, at APOL1, the “Multi-Tox Assay Max Activity (%)” value came to 100.0% and the pIC50 is above 7.30.

On to `CC(=O)Nc1cccc([C@@H]2C[C@]3(C[C@H](C)N2)OCCc2cc(Cl)sc23)c1` (racemic) [Compound 113], for which, on APOL1 G1, the pIC50 is 6.30 to 7.30 and the Emax was determined as 97%. At APOL1, the “Multi-Tox Assay Max Activity (%)” value turned out to be 100.0% and the pIC50 is above 7.30.

For `C[C@H]1C[C@@]2(C[C@@H](c3cccc(NS(C)(=O)=O)c3)N1)OCCc1cc(Cl)sc12` (racemic) [Compound 115], on APOL1 G1, the pIC50 is 6.30 to 7.30 and the Emax is 100%. For the same compound, on APOL1, the “Multi-Tox Assay Max Activity (%)” value worked out at 99.3% and the pIC50 is above 7.30.

With `Cc1nccc([C@@H]2C[C@]3(C[C@H](C)N2)OCCc2cc(Cl)sc23)n1` (racemic) [Compound 116], on APOL1 G1, the pIC50 is 6.30 to 7.30 and the Emax came to 101%. This compound also had a pIC50 on APOL1 above 7.30.
